Data as given in BindingDB's records for doi:10.1021/jm800325y (National Taiwan University, 2008).

Biological target: T1, Geranylgeranyl pyrophosphate synthase (Homo sapiens, UniProt O95749)
T1 sequence (O95749 whole entry): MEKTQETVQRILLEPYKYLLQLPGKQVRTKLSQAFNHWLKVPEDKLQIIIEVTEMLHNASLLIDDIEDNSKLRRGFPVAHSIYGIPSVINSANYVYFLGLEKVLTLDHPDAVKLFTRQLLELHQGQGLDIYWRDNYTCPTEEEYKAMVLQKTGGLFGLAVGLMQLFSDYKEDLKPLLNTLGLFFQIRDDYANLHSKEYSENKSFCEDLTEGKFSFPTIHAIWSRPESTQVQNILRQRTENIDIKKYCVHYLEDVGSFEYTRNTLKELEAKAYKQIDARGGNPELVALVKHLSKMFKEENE
Test: GGPP Synthase Inhibition Assay
Conditions: pH 7; 37 °C
Method: The inhibitory activity of each test compound was evaluated by monitoring the formation of [14C]GGPP from FPP, using [14C]IPP as the substrate. To confirm the formation of radioactive products, one-dimensional thin-layer chromatography (TLC), with autoradiographic detection of [14C]FPP/[14C]GGPP, was used.

SMILES	IC50 [nM]
CCCCCCCCCC(O)(P(=O)(O)O)P(=O)(O)O [(1-hydroxy-1-phosphonodecyl)phosphonic acid]	890
CCCCCCCCc1ccc[n+](CC(O)(P(=O)([O-])O)P(=O)(O)O)c1 (configuration not stated) [1-(2-hydrogenphosphonato-2-hydroxy-2-phosphonoethyl)-3-octylpyridin-1-ium]	1380
